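Test compounds were applied to cells in 96-well plates for 48 hours at 5 doses. TGI denotes the concentration required for complete inhibition of growth.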
Columns and labels:
Assay in all cases: NCI-60 cell line screen, 48 h
[1] = tested on: 786-0 renal
[2] = tested on: A498 renal
[3] = tested on: A549 NSCLC
[4] = tested on: ACHN renal
[5] = tested on: BT-549 breast
[6] = tested on: CAKI-1 renal
[7] = tested on: CCRF-CEM leukemia
[8] = tested on: COLO 205 colon
[9] = tested on: DU-145 prostate
[10] = tested on: EKVX NSCLC
[11] = tested on: HCC-2998 colon
[12] = tested on: HCT-116 colon
[13] = tested on: HCT-15 colon
[14] = tested on: HL-60(TB) leukemia
[15] = tested on: HOP-62 NSCLC
[16] = tested on: HS 578T breast
[17] = tested on: HT29 colon
[18] = tested on: IGROV1 ovarian
[19] = tested on: K-562 leukemia
[20] = tested on: KM12 colon
[21] = tested on: LOX IMVI melanoma
[22] = tested on: M14 melanoma
[23] = tested on: MALME-3M melanoma
[24] = tested on: MCF7 breast
[25] = tested on: MDA-MB-231 breast
[26] = tested on: MDA-MB-435
[27] = tested on: MDA-N
[28] = tested on: MOLT-4 leukemia
[29] = tested on: NCI-H226 lung
[30] = tested on: NCI-H23 lung
[31] = tested on: NCI-H460 lung
[32] = tested on: NCI-H522 lung
[33] = tested on: NCI/ADR-RES ovarian
[34] = tested on: OVCAR-3 ovarian
[35] = tested on: OVCAR-4 ovarian
[36] = tested on: OVCAR-5 ovarian
[37] = tested on: OVCAR-8 ovarian
[38] = tested on: PC-3 prostate
[39] = tested on: RPMI-8226 leukemia
[40] = tested on: RXF 393 renal
[41] = tested on: SF-268 CNS
[42] = tested on: SF-295 CNS
[43] = tested on: SF-539 CNS
[44] = tested on: SK-MEL-2 melanoma
[45] = tested on: SK-MEL-28 melanoma
[46] = tested on: SK-MEL-5 melanoma
[47] = tested on: SK-OV-3 ovarian
[48] = tested on: SN12C renal
[49] = tested on: SNB-19 CNS
[50] = tested on: SNB-75 CNS
[51] = tested on: SW-620 colon
[52] = tested on: T-47D breast
[53] = tested on: TK-10 renal
[54] = tested on: U251 CNS
[55] = tested on: UACC-257 melanoma
[56] = tested on: UACC-62 melanoma

Measured: TGI

CC(=O)OC/C=C(\C)CCC(Br)C(C)(C)Br (stereo unspecified)
> 10 µM: all assays above
